{"source": "patent US20250179121A1", "about": "“CYCLOSPORINE COMPOSITIONS AND METHODS OF USE” (Bacainn Biotherapeutics, Ltd., priority 2018, published 2025)", "key": {"[1]": {"test": "Rat PK, plasma concentrations after oral dosing", "type": "in vivo, Sprague-Dawley rats", "details": "for plasma concentration of BT070 (breakdown product of BT051): individual animals A-E", "experimental": "[Worded in the source for another target; this target is reported under the same test.] Blood samples were collected at the indicated time points and processed to plasma. Plasma concentrations of BT090 were assayed by LC-MS/MS. Feces were collected over t=0 to 4 h, 4-8 h, and 8-24 h, homogenized in buffer and assayed for BT090 concentrations by LC-MS/MS. Total feces weight collected for each time interval was recorded. BT090 was formulated in 1% NMP, 0.3% Tween-80 in 0.5% methylcellulose."}, "neutrophil migration": {"test_system": "neutrophil migration", "test": "PMN transmigration assay (T84 monolayer infected with Salmonella typhimurium, MPO readout)", "type": "cell-based, human", "experimental": "PMN transmigration assay. T84 colorectal cancer cells were grown to confluence on the bottom side of 12 well polycarbonate membrane inserts of a 24 well Transwell® plate. The confluent growth of these epithelial cells results in physiologically-relevant apical (luminal) and basolateral surfaces in the transwells. […] The monolayer was then infected on the apical surface with Salmonella typhimurium for 2 hours to induce hepoxilin A3 (HXA3) efflux through the MRP2 membrane protein and into the apical chamber. […] Freshly isolated and prepared human neutrophils were then added to the basolateral side and allowed to transmigrate through the monolayer for 2 hours. The number of neutrophils migrated to the apical chamber (due to the HXA3 gradient) was then assayed by determination of myeloperoxidase activity (a neutrophil biomarker). Inhibition of transmigration is indicated by lower MPO activity in the apical chamber."}, "[2]": {"test": "Amount excreted in feces after oral dosing in rats", "type": "in vivo, Sprague-Dawley rats", "details": "rat; for Conc. in feces: BT070 10 mg/kg oral, individual animals A-C, corrected for the 1:9 dilution factor"}, "[3]": {"details": "BT070 10 mg/kg oral, rat, individual animals A-C, 10 mg/kg"}}, "note": "Several values for one entry are separate records, joined by “and”; a condition that tells them apart may be missing. Equal entries are not always repeated."}
{"smiles": "CC[C@@H]1NC(=O)[C@H]([C@H](O)[C@H](C)CCCCCC(=O)O)N(C)C(=O)[C@H](C(C)C)N(C)C(=O)[C@H](CC(C)C)N(C)C(=O)[C@H](CC(C)C)N(C)C(=O)[C@@H](C)NC(=O)[C@H](C)NC(=O)[C@H](CC(C)C)N(C)C(=O)[C@H](C(C)C)NC(=O)[C@H](CC(C)C)N(C)C(=O)CN(C)C1=O", "note": "[BT070]", "values": [{"measurement": "plasma concentration, Mean", "setting": "[1]; BT070 10 mg/kg oral, rat, 0.5 h, mean", "value": 3588.6, "unit": "ng/mL"}, {"measurement": "plasma concentration, Mean", "setting": "[1]; BT070 10 mg/kg oral, rat, 1 h, mean", "value": 2301.5, "unit": "ng/mL"}, {"measurement": "plasma concentration, Mean", "setting": "[1]; BT070 10 mg/kg oral, rat, 2 h, mean", "value": 1522.8, "unit": "ng/mL"}, {"measurement": "plasma concentration, Mean", "setting": "[1]; BT070 10 mg/kg oral, rat, 4 h, mean", "value": 829.6, "unit": "ng/mL"}, {"measurement": "plasma concentration, Mean", "setting": "[1]; BT070 10 mg/kg oral, rat, 6 h, mean", "value": 488.3, "unit": "ng/mL"}, {"measurement": "plasma concentration, Mean", "setting": "[1]; BT070 10 mg/kg oral, rat, 8 h, mean", "value": 293.9, "unit": "ng/mL"}, {"measurement": "plasma concentration, Mean", "setting": "[1]; BT070 10 mg/kg oral, rat, 24 h, mean", "value": 101.2, "unit": "ng/mL"}, {"measurement": "AUCinf", "setting": "[1]; [3]", "value": "17616.8 ng/mL * h and 19158.4* ng/mL * h and 7432.0 ng/mL * h"}, {"measurement": "AUClast", "setting": "[1]; [3]", "value": "17560.9 ng·h/mL and 11798.3 ng·h/mL and 7249.5 ng·h/mL"}, {"measurement": "AUCinf, Mean", "setting": "[1]; BT070 10 mg/kg oral, rat, mean", "value": 14735.7, "unit": "ng·h/mL"}, {"measurement": "AUClast, Mean", "setting": "[1]; BT070 10 mg/kg oral, rat, mean", "value": 12202.9, "unit": "ng·h/mL"}, {"measurement": "plasma concentration of BT070 (breakdown product of BT051)", "setting": "[1]; after BT051 10 mg/kg oral, rat, 0.5 h", "value": "3.3 ng/mL and NQ (Not quantifiable. No peak or below limit of quantification (LOQ = 2.5 ng/mL)) (4×)"}, {"measurement": "plasma concentration of BT070 (breakdown product of BT051), Mean", "setting": "[1]; after BT051 10 mg/kg oral, rat, 0.5 h, mean", "value": 3.3, "unit": "ng/mL"}, {"measurement": "plasma concentration of BT070 (breakdown product of BT051)", "setting": "[1]; after BT051 10 mg/kg oral, rat, 1 h", "value": "NQ (Not quantifiable. No peak or below limit of quantification (LOQ = 2.5 ng/mL))"}, {"measurement": "plasma concentration of BT070 (breakdown product of BT051)", "setting": "[1]; after BT051 10 mg/kg oral, rat, 2 h", "value": "NQ (Not quantifiable. No peak or below limit of quantification (LOQ = 2.5 ng/mL))"}, {"measurement": "plasma concentration of BT070 (breakdown product of BT051)", "setting": "[1]; after BT051 10 mg/kg oral, rat, 4 h", "value": "NQ (Not quantifiable. No peak or below limit of quantification (LOQ = 2.5 ng/mL))"}, {"measurement": "plasma concentration of BT070 (breakdown product of BT051)", "setting": "[1]; after BT051 10 mg/kg oral, rat, 6 h", "value": "NQ (Not quantifiable. No peak or below limit of quantification (LOQ = 2.5 ng/mL))"}, {"measurement": "plasma concentration of BT070 (breakdown product of BT051)", "setting": "[1]; after BT051 10 mg/kg oral, rat, 8 h", "value": "NQ (Not quantifiable. No peak or below limit of quantification (LOQ = 2.5 ng/mL))"}, {"measurement": "plasma concentration of BT070 (breakdown product of BT051)", "setting": "[1]; after BT051 10 mg/kg oral, rat, 24 h", "value": "NQ (Not quantifiable. No peak or below limit of quantification (LOQ = 2.5 ng/mL))"}, {"measurement": "Cmax of BT070 (breakdown product of BT051)", "setting": "[1]; after BT051 10 mg/kg oral, rat, individual animals", "value": 3.3, "unit": "ng/mL"}, {"measurement": "Cmax of BT070 (breakdown product of BT051), Mean", "setting": "[1]; after BT051 10 mg/kg oral, rat, mean", "value": 3.3, "unit": "ng/mL"}, {"measurement": "detection in the plasma from 15 minutes to 24 hours", "setting": "[1]; compound dosed orally in rats at 10 mg/kg", "value": "present in the plasma in all subject rats"}, {"measurement": "oral bioavailability of the breakdown product of BT051", "setting": "[1]; following oral administration of BT051 in rats at 10 mg/kg", "value": "not orally bioavailable"}, {"measurement": "inhibition of neutrophil migration, dose-response", "setting": "neutrophil migration; FIG. 1", "value": "dose-responsive inhibition"}, {"measurement": "inhibition of neutrophil migration", "setting": "neutrophil migration; dose of 100 nM", "value": "exhibit inhibition of neutrophil migration"}, {"measurement": "IC50", "setting": "neutrophil migration; read-out: compound concentration at which 50% inhibition of neutrophil migration was observed, FIG. 1 dose-response", "value": 31.2, "unit": "nM"}, {"measurement": "Conc. in feces", "setting": "[2]; 0-4 h", "value": "NQ (Not quantifiable. No peak or below limit of quantification (LOQ = 1000 ng/mL))"}, {"measurement": "Conc. in feces", "setting": "[2]; 4-8 h", "value": "NQ (Not quantifiable. No peak or below limit of quantification (LOQ = 1000 ng/mL))"}, {"measurement": "Total amount of BT070 (breakdown product of BT051) excreted in feces", "setting": "[2]; after BT051 10 mg/kg oral, 0-48 h, individual animals A-D", "value": "36.9 µg and 33.4 µg and 41.4 µg and 38.5 µg"}, {"measurement": "Amount of BT070 (breakdown product of BT051) excreted in feces", "setting": "[2]; after BT051 10 mg/kg oral, 8-24 h, individual animals A-D", "value": "31.2 µg and 14.3 µg and 10.6 µg and 34.8 µg"}, {"measurement": "Amount of BT070 (breakdown product of BT051) excreted in feces", "setting": "[2]; after BT051 10 mg/kg oral, 24-48 h, individual animals A-D", "value": "5.7 µg and 19.1 µg and 30.8 µg and 3.7 µg"}]}
